The values that follow are results of earlier work, collected in US20130030007A1, “Obesity Small Molecules” (AKRON MOLECULES GMBH, priority 2010, published 2013).

Read-outs that look alike come from different tables or passages of the source. Non-standard residues stand in square brackets, D forms with d. Residues, ends and D or L forms follow the SMILES beside them. *: point of attachment. Sta = CC(C)C[C@H](N)[C@@H](O)CC(=O)O; Isovaleryl = CC(C)CC(=O)*

The data set concerns human ortholog of Drosophila obesity gene. Also noted: key: O: Obesity - obesity pathway interaction; B: validated binding partner. Conditions: cited from earlier work.
Where [1] appears, read: interaction of the small molecule with the human ortholog(s) / Drosophila gene(s) listed in the same table line.

As to `O=C1C[C@@H](c2ccc(O)cc2)Oc2cc(O)cc(O)c21` [NARIGENIN], the “Type: Type of interaction” value under setting [1] is “O”.

Turning to `O=C(O)C[C@H](O)C[C@H](O)/C=C/c1c(C2CC2)nc2ccccc2c1-c1ccc(F)cc1` [NK 104], the “Type: Type of interaction” value under setting [1] is “B”. For `CN[C@H](CC(=O)O)C(=O)O` [NMDA], the “Type: Type of interaction” value was “O”.

Take `CNC(=O)[C@@H](Cc1ccccc1)N(C)C(=O)[C@@H](Cc1ccc2ccccc2c1)N(C)C(=O)/C=C/CC(C)(C)N` [NN 703]: under setting [1], the “Type: Type of interaction” value is reported as “B”.

Regarding `O=c1c(-c2ccc(O)cc2)coc2cc(O)cc(O)c12` [NPI 031L], the “Type: Type of interaction” value under setting [1] is “B”. Turning to `CCN(CC)CCCC(C)Nc1nc(C)cc(Nc2ccc3nc(C)cc(N)c3c2)n1` (stereo not shown) [NSC 23766], the “Type: Type of interaction” value is “B”.

`Nc1nc(OCC2CCCCC2)c2[nH]cnc2n1` [NU2058]: the “Type: Type of interaction” value was “B”. On to `NS(=O)(=O)c1ccc(Nc2nc(OCC3CCCCC3)c3[nH]cnc3n2)cc1` [NU6102], for which the “Type: Type of interaction” value is “B”.

As for `Nc1ncnc2c1c(-c1cccc(OCc3ccccc3)c1)cn2C1CC(CN2CCC2)C1` (stereo not shown) [NVP-AEW541], the “Type: Type of interaction” value is “O”. Consider `c1ccc2ccccc2c1` [Naftalen], for which the “Type: Type of interaction” value under setting [1] is on record as “B”. As for `C=CCN1CC[C@]23c4c5ccc(O)c4O[C@H]2C(=O)CC[C@@]3(O)[C@H]1C5` [Naloxone], the “Type: Type of interaction” value under setting [1] was “O”. Regarding `O=C1CC[C@@]2(O)[C@H]3Cc4ccc(O)c5c4[C@@]2(CCN3CC2CC2)[C@H]1O5` [Naltrexone], the “Type: Type of interaction” value under setting [1] is “B”. As to `c1ccc2c(CC3=NCCN3)cccc2c1` [Naphazoline], the “Type: Type of interaction” value under setting [1] is listed as “O”. Take `CCc1nn(CCCN2CCN(c3cccc(Cl)c3)CC2)c(=O)n1CCOc1ccccc1` [Nefazodone]: the “Type: Type of interaction” value under setting [1] is “O”. For `Cc1c(O)cccc1C(=O)N[C@@H](CSc1ccccc1)[C@H](O)CN1C[C@H]2CCCC[C@H]2C[C@H]1C(=O)NC(C)(C)C` [Nelfinavir], the “Type: Type of interaction” value under setting [1] is given as “O”. Regarding `NC[C@@H]1O[C@H](O[C@H]2[C@@H](O)[C@H](O[C@@H]3[C@@H](O)[C@H](N)C[C@H](N)[C@H]3O[C@H]3O[C@H](CN)[C@@H](O)[C@H](O)[C@H]3N)O[C@@H]2CO)[C@H](N)[C@@H](O)[C@@H]1O` [Neomycin], the “Type: Type of interaction” value is “B”. With `Cc1ccnc2c1NC(=O)c1cccnc1N2C1CC1` [Nevirapine], the “Type: Type of interaction” value under setting [1] is listed as “O”.

`NC(=O)c1cccnc1` [Niacinamide]: under setting [1], the “Type: Type of interaction” value is reported as “B”.

As for `O=C(OCC(COC(=O)c1cccnc1)(COC(=O)c1cccnc1)COC(=O)c1cccnc1)c1cccnc1` [Niceritrol], the “Type: Type of interaction” value under setting [1] is reported as “O”.

With `CO[C@@H]1C[C@@H](C[C@H]2CC[C@H](C)[C@H]([C@@H](C)C(=O)O)O2)O[C@]2(O[C@](C)([C@H]3CC[C@@](C)([C@@H]4O[C@@H]([C@H]5O[C@@](O)(CO)[C@H](C)C[C@@H]5C)C[C@@H]4C)O3)C[C@H]2C)[C@@H]1C` [Nigericin], the “Type: Type of interaction” value under setting [1] is reported as “O”.

For the compound `COc1ccc(-c2cc(=O)c3c(OC)c(OC)c(OC)c(OC)c3o2)cc1OC` [Nobiletin], the “Type: Type of interaction” value under setting [1] is on record as “O”. Take `Oc1ccc2c3c1O[C@H]1c4[nH]c5c(c4C[C@@]4(O)[C@@H](C2)N(CC2CC2)CC[C@]314)C[C@@]1(O)[C@H]2Cc3ccc(O)c4c3[C@@]1(CCN2CC1CC1)[C@H]5O4` [Norbinaltorphimine]: the “Type: Type of interaction” value is on record as “O”. Consider `CC(Cc1ccc(O)c(O)c1)C(C)Cc1ccc(O)c(O)c1` (stereo not shown) [Nordihydroguaiaretic Acid], for which the “Type: Type of interaction” value under setting [1] was “B”. Turning to `C#C[C@]1(O)CC[C@H]2[C@@H]3CCC4=CC(=O)CC[C@@H]4[C@H]3CC[C@@]21C` [Norethindrone], under setting [1], the “Type: Type of interaction” value is on record as “O”. For the compound `CN(C)CC1CCCCC1(O)c1cccc(O)c1` (stereo not shown) [O-demethyltramadol], the “Type: Type of interaction” value is reported as “O”.

As for `Oc1ccccc1OC(c1ccccc1)C1CNCCO1` (stereo not shown) [O-desethylreboxetine], the “Type: Type of interaction” value is listed as “B”. As for `O=C(Nc1ccc(OC(F)(F)F)cc1)c1sccc1NCc1ccnc2ccccc12` [OSI 930], the “Type: Type of interaction” value under setting [1] is “O”. Regarding `NCC(=O)Nc1ccc(-n2nc(C(F)(F)F)cc2-c2ccc3c(ccc4ccccc43)c2)cc1` [OSU 03012], the “Type: Type of interaction” value under setting [1] is “B”. For the compound `C[C@@H](O)[C@@H]1NC(=O)[C@H](CCCCN)NC(=O)[C@@H](Cc2c[nH]c3ccccc23)NC(=O)[C@H](Cc2ccccc2)NC(=O)[C@@H](NC(=O)[C@H](N)Cc2ccccc2)CSSC[C@@H](C(=O)N[C@H](CO)[C@@H](C)O)NC1=O` [Octreotide], the “Type: Type of interaction” value is “B and O”. As for `NCCO` [Olamine], the “Type: Type of interaction” value under setting [1] is “B”. In the case of `C[Si](Cn1cncn1)(c1ccc(F)cc1)c1ccc(F)cc1` [Olymp], the “Type: Type of interaction” value is “O”. In the case of `Cc1nccn1CC1CCc2c(c3ccccc3n2C)C1=O` (stereo not shown) [Ondansetron], under setting [1], the “Type: Type of interaction” value is listed as “O”. Consider `C[C@]12CCC(=O)C=C1CC[C@@H]1[C@@H]2[C@@H](O)C[C@@]2(C)[C@H]1CC[C@]2(O)C(=O)CO` [Optef], for which the “Type: Type of interaction” value was “O”. Regarding `CO[C@H]1O[C@H](COS(=O)(=O)O)[C@@H](O[C@@H]2O[C@@H](C(=O)O)[C@@H](O[C@H]3O[C@H](COS(=O)(=O)O)[C@@H](O[C@@H]4O[C@H](C(=O)O)[C@@H](O[C@H]5O[C@H](COS(=O)(=O)O)[C@@H](O)[C@H](O)[C@H]5NS(=O)(=O)O)[C@H](O)[C@H]4O)[C@H](OS(=O)(=O)O)[C@H]3NS(=O)(=O)O)[C@H](O)[C@H]2OS(=O)(=O)O)[C@H](O)[C@H]1NS(=O)(=O)O` [Org 31540], under setting [1], the “Type: Type of interaction” value was “B”.

Regarding `Cc1ccccc1C(OCCN(C)C)c1ccccc1` (stereo not shown) [Orphenadrine], the “Type: Type of interaction” value under setting [1] is listed as “O”. With `C[C@@H]1O[C@@H](O[C@H]2C[C@@H](O)[C@]3(CO)[C@H]4[C@H](O)C[C@]5(C)[C@@H](C6=CC(=O)OC6)CC[C@]5(O)[C@@H]4CC[C@]3(O)C2)[C@H](O)[C@H](O)[C@H]1O` [Ouabain], under setting [1], the “Type: Type of interaction” value was “B”. `NCCc1cc(O)c(O)cc1O` [Oxidopamine]: the “Type: Type of interaction” value is “B”. `CCN(CC)CC#CCOC(=O)C(O)(c1ccccc1)C1CCCCC1` (stereo not shown) [Oxytrol]: the “Type: Type of interaction” value under setting [1] was “O”. With `COc1cccc(-c2cc(=O)c3ccccc3o2)c1N` [PD 98059], the “Type: Type of interaction” value is recorded as “B”. Regarding `O=[N+]([O-])c1ccc(-c2nc(-c3ccc(F)cc3)c(-c3ccncc3)[nH]2)cc1` [PD 169316], the “Type: Type of interaction” value was “B”. In the case of `CCN(CC)CCCCNc1ncc2cc(-c3cc(OC)cc(OC)c3)c(NC(=O)NC(C)(C)C)nc2n1` [PD 173074], the “Type: Type of interaction” value is “B”. `CCCC(=O)O[C@@H]1[C@@H](C)[C@@]2(O)[C@@H](C=C(CO)C[C@]3(O)C(=O)C(C)=C[C@@H]23)[C@@H]2C(C)(C)[C@]12OC(=O)CCC` [PDBU]: the “Type: Type of interaction” value was “O”. On to `O=S(=O)(F)Cc1ccccc1` [PMSF], for which the “Type: Type of interaction” value is “O”. In the case of `CC(=O)O[C@H]1C(=O)[C@@]2(C)[C@H]([C@H](OC(=O)c3ccccc3)[C@]3(O)C[C@H](OC(=O)[C@H](O)[C@@H](NC(=O)c4ccccc4)c4ccccc4)C(C)=C1C3(C)C)[C@]1(OC(C)=O)CO[C@@H]1C[C@@H]2O` [Paclitaxel], under setting [1], the “Type: Type of interaction” value is “B”.

Turning to `O=C1C=C2C(=CCOC2O)O1` (stereo not shown) [Patulin], the “Type: Type of interaction” value is given as “O”. With `CC1=C\[C@H](C)C[C@@]2(C)CC[C@@H](O2)[C@@]23CC[C@@](C)(C[C@@H](O2)[C@H]2O[C@](C)(CC2=O)[C@@H](O)[C@@H]2CC[C@@]4(CCC[C@H](O4)[C@@H](C)C(=O)O[C@@H]4C[C@@H]([C@@]5(O)OCC[C@@H](C)[C@H]5O)O[C@@H]4\C=C\1)O2)O3` [Pectenotoxin II], the “Type: Type of interaction” value is “B”. `Nc1nc2[nH]cc(CCc3ccc(C(=O)N[C@@H](CCC(=O)O)C(=O)O)cc3)c2c(=O)[nH]1` [Pemetrexed]: the “Type: Type of interaction” value under setting [1] was “B”.

As for `CC(=O)CCCCn1c(=O)c2c(ncn2C)n(C)c1=O` [Pentoxifylline], under setting [1], the “Type: Type of interaction” value is on record as “B”. On to `Cc1c(N)nc([C@H](CC(N)=O)NC[C@H](N)C(N)=O)nc1C(=O)N[C@H](C(=O)N[C@H](C)[C@@H](O)[C@H](C)C(=O)N[C@H](C(=O)NCCc1nc(-c2nc(C(=O)NCCCN[C@@H](C)c3ccccc3)cs2)cs1)[C@@H](C)O)[C@@H](O[C@@H]1O[C@@H](CO)[C@@H](O)[C@H](O)[C@@H]1O[C@H]1O[C@H](CO)[C@@H](O)[C@H](OC(N)=O)[C@@H]1O)c1c[nH]cn1` [Peplomycin], for which the “Type: Type of interaction” value is recorded as “B”. In the case of `CC(C)CC(=O)N[C@H](C(=O)N[C@H](C(=O)N[C@@H](CC(C)C)[C@@H](O)CC(=O)N[C@@H](C)C(=O)N[C@@H](CC(C)C)[C@@H](O)CC(=O)O)C(C)C)C(C)C` [Pepstatin A] (Isovaleryl-VV[Sta]A[Sta]-OH), the “Type: Type of interaction” value is listed as “O”. Take `CN1CCN(CCCN2c3ccccc3Sc3ccccc32)CC1` [Perazine]: the “Type: Type of interaction” value under setting [1] is on record as “O”. Regarding `C=C(C)[C@@H]1CC=C(CO)CC1` [Perillol], the “Type: Type of interaction” value under setting [1] is “B”.

`CCC[C@H](N[C@@H](C)C(=O)N1[C@H](C(=O)O)C[C@@H]2CCCC[C@@H]21)C(=O)OCC` [Perindopril]: under setting [1], the “Type: Type of interaction” value was “B”. As to `CCC(c1ccccc1)c1c(O)c2ccccc2oc1=O` (stereo not shown) [Phenprocoumon], the “Type: Type of interaction” value under setting [1] is on record as “O”. In the case of `O=C1NC(=O)C(c2ccccc2)(c2ccccc2)N1` [Phenytoin], the “Type: Type of interaction” value under setting [1] is “B”. For `CN1C(C(=O)Nc2ccccn2)=C(O)c2ccccc2S1(=O)=O` [Piroxicam], the “Type: Type of interaction” value under setting [1] was “B”. Take `COc1cc2nc(N3CCN(C(=O)c4ccco4)CC3)nc(N)c2cc1OC` [Prazosin]: the “Type: Type of interaction” value under setting [1] is “O”.

For the compound `C[C@]12C=CC(=O)C=C1CC[C@@H]1[C@@H]2C(=O)C[C@@]2(C)[C@H]1CC[C@]2(O)C(=O)CO` [Prednisone], the “Type: Type of interaction” value under setting [1] is on record as “O”. Turning to `CCC1(c2ccccc2)C(=O)NCNC1=O` [Primidone], under setting [1], the “Type: Type of interaction” value was “B”.

On to `CCCC(C(=O)OCCN(CC)CC)(c1ccccc1)c1ccccc1` [Proadifen], for which the “Type: Type of interaction” value under setting [1] is given as “O”. Take `CCCc1cc(=O)[nH]c(=S)[nH]1` [Procasil]: the “Type: Type of interaction” value is on record as “O”.
